Assay results: patent publication US20250127937A1, “FAP INHIBITOR” (UNIVERSITÄT HEIDELBERG, priority 2018, published 2025)

Assays:
[1] = system: HT-1080-FAP tumor xenografts; assay: Organ distribution ex vivo in HT-1080-FAP tumor bearing nude mice; design: species or system mouse
Protocol: For in vivo experiments, 8 week old BALB/c nu/nu mice (Charles River) were subcutaneously inoculated into the right trunk with 5×10^6 with HT-1080-FAP, Capan-2 or SK-LMS-1 cells, respectively. When the size of the tumor reached approximately 1 cm^3, the radiolabeled compound was injected via the tail vein (˜10 MBq for small-animal PET imaging; ˜1 MBq for organ distribution). PET imaging was performed up to 140 min after intravenous injection of 1 MBq of Ga-68 labeled compound per mouse using the Inveon PET small-animal PET scanner (Siemens). Images were reconstructed iteratively using the 3D-OSEM+MAP method and were converted to standardized uptake value (SUV) images. Quantification was done using a ROI technique and expressed as SUV mean. For organ distribution of Lu-177 labeled compound (approx. […] per mouse), the animals (n=3 for each time point) were sacrificed after indicated time points (from 30 min to 24 h). The distributed radioactivity was measured in all dissected organs and in blood using a γ-counter (Cobra Autogamma, Packard). The values are expressed as percentage of injected dose per gram of tissue (% ID/g).

[2] = target: recombinant human FAP protein (Homo sapiens (Human), UniProt Q12884); assay: Enzyme inhibition assay with fluorogenic substrate Z-GP-AMC; type: biochemical; settings: 0-1000 nM/well, 30 min at 37° C.
HT-1080-FAP cells = assay: Efflux experiments in HT-1080-FAP cells; type: cell-based, human; settings: after 24 h in compound-free medium
Protocol: Radioligand binding studies were performed using HT-1080-FAP cells. The radiolabeled compound was added to the cell culture and incubated for different time intervals ranging from 10 min to 24 h. Competition experiments were performed by simultaneous exposure to unlabeled (10^−5 M to 10^−9M) and radiolabeled compound for 60 min. For efflux experiments, radioactive medium was removed after incubation for 60 min and replaced by non-radioactive medium for time intervals ranging from 1 to 24 h. For internalization experiments, surface bound activity was removed by incubating the cells with 1 M glycine-HCl buffer for 10 min. The radioactivity was measured using a γ-counter, normalized to 1 mio cells and calculated as percentage of applied dose (% ID).
For radioligand binding studies, cells were seeded in 6-well plates and cultivated for 48 h to a final confluence of approx. 80-90% (1.2-2 mio cells/well). The medium was replaced by 1 mL fresh medium without fetal calf serum. The radiolabeled compound was added to the cell culture and incubated for different time intervals ranging from 10 min to 24 h. Competition experiments were performed by simultaneous exposure to unlabeled (10^−5 M to 10^−9 M) and radiolabeled compound for 60 min. For efflux experiments, radioactive medium was removed after incubation for 60 min and replaced by non-radioactive medium for time intervals ranging from 1 to 24 h. In all experiments, the cells were washed with 1 mL phosphate-buffered saline pH 7.4 for 2 times and subsequently lysed with 1.4 ml lysis buffer (0.3 M NaOH, 0.2% SDS). Radioactivity was determined in a γ-counter (Cobra II, Packard), normalized to 1 mio cells and calculated as percentage of the applied dose (% ID). Each experiment was performed 3 times, and 3 repetitions per independent experiment were acquired.

[3] = Preliminary dosimetry estimate in patients; type: in vivo, human
[4] = system: tumor lesions and normal tissue of cancer patients; assay: Clinical PET/CT imaging in cancer patients (SUV); type: in vivo, human
Protocol: Diagnostic imaging of more than 100 patients was performed under the conditions of the updated declaration of Helsinki, § 37 (Unproven interventions in clinical practice) and in accordance to the German Pharmaceuticals Law § 13 (2b) for medical reasons using either ^68Ga-FAPI-02 or -04, which was applied intravenously (20 nmol, 122-336 MBq), 10 min, 1 and 3 hours post tracer administration. Variation of injected radiotracer activity is due to the short half-life of ^68Ga and the variable elution efficiencies obtained during the lifetime of the ^68Ge/^68Ga generator. […] The PET/CT scans were performed with a Biograph mCT Flow™ PET/CT-Scanner (Siemens Medical Solution) using the following parameters: slice thickness of 5 mm, increment of 3-4 mm, soft-tissue reconstruction kernel, care dose. Immediately after CT scanning, a whole-body PET was acquired in 3D (matrix 200×200) in FlowMotion™ with 0.7 cm/min. The emission data were corrected for random, scatter and decay. Reconstruction was conducted with an ordered subset expectation maximisation (OSEM) algorithm with 2 iterations/21 subsets and Gauss-filtered to a transaxial resolution of 5 mm at full-width half-maximum (FWHM). Attenuation correction was performed using the low-dose non-enhanced CT data. The quantitative assessment of standardized uptake values (SUV) was done using a region of interest technique.
For the normal tissue of 16 organs, a 2 cm Spheric-VOI was placed in the parenchyma, for tumor lesions a threshold segmented VOI was used to quantify SUVmean/max^3.

[5] = Blood pool clearance from SUVmean of the heart; type: in vivo
From the text: The calculated plateau values, which were higher for Ga-68 labeled FAPI-13, -21, -36 and AlF-18 labeled FAPI-74 theoretically correspond to a higher fraction of compound which is not cleared due to unspecific binding or by remaining in circulating (Table 12).

[6] = Lu-177 labeled, 1 h after i.v., HT-1080-FAP, mean ± SD, n = 3

Chain of recombinant human FAP protein (Q12884 whole entry): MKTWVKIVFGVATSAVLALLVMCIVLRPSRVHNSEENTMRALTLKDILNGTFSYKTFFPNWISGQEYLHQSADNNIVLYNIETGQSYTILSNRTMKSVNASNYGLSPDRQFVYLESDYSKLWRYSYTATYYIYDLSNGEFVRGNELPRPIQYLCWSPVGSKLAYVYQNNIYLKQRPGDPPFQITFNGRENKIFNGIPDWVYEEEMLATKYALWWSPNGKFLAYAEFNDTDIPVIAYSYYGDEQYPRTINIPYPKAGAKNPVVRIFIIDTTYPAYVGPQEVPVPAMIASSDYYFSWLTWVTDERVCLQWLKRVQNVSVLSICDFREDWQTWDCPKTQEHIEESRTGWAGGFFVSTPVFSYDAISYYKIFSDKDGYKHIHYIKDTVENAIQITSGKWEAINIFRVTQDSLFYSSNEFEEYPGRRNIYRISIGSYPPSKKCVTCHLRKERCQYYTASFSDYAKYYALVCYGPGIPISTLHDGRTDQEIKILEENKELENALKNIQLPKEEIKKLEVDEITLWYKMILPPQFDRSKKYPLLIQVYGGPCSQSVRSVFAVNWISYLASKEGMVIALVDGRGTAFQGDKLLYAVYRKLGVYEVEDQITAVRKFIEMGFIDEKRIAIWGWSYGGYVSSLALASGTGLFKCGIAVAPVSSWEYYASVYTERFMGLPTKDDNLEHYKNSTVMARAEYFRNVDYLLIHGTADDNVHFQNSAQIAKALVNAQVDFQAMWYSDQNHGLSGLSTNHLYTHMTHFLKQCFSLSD

For `N#C[C@@H]1CC(F)(F)CN1C(=O)CNC(=O)c1ccnc2ccc(OCCCN3CCN(C(=O)CN4CCN(CC(=O)O)CCN(CC(=O)O)CCN(CC(=O)O)CC4)CC3)cc12` [FAPI-04], the “highest enrichment within the FAP-expressing tumor” value ([1]; 177Lu labeled, after 2 h) was 5.4 % ID/g, the “Tumor uptake 1 h” value ([1]; HT-1080-FAP tumor bearing nude mice, 1 h, mean ± SD, n = 3) was 4.9 ± 0.82 % ID/g and the “Tumor uptake 4 h” value ([1]; HT-1080-FAP tumor bearing nude mice, 4 h, mean ± SD, n = 3) was 5.4 ± 1.51 % ID/g. For the same compound, the “Tumor uptake 24 h” value ([1]; HT-1080-FAP tumor bearing nude mice, 24 h, mean ± SD, n = 3) was 3.0 ± 0.23 % ID/g, the Blood uptake [1, 6] was 1.70 ± 0.206 % ID/g and the Brain uptake [1, 6] was 0.08 ± 0.010 % ID/g. For the same compound, the Heart uptake [1, 6] was 0.80 ± 0.089 % ID/g, the Intestines uptake [1, 6] was 0.66 ± 0.196 % ID/g and the Kidneys uptake [1, 6] was 2.28 ± 0.477 % ID/g. The Liver uptake [1, 6] was 0.73 ± 0.118 % ID/g, the Lungs uptake [1, 6] was 1.50 ± 0.151 % ID/g and the Muscle uptake [1, 6] was 0.92 ± 0.020 % ID/g. The Spleen uptake [1, 6] was 0.48 ± 0.072 % ID/g, the Tumor uptake [1, 6] was 4.89 ± 0.817 % ID/g and the “inhibition of enzymatic FAP activity” value [2] was “robust, dose-dependent FAP inhibition”. The “retention of the originally accumulated radioactivity (efflux)” value (HT-1080-FAP cells) was 49%, the “equivalent dose of an exam” value ([3]; 200 MBq Ga-68) was 3-4 mSv and the effective dose ([3]; calculated with IDAC1/ICRP60) was 1.66E-02 mSv/MBq. For the same compound, the effective dose ([3]; calculated with IDAC2/ICRP103) was 1.35E-02 mSv/MBq, the effective dose ([3]; calculated with OLINDA) was 1.64E-02 mSv/MBq and the “maximum SUV values in primary tumor, lymph node and bone metastases” value ([4]; 68Ga labeled, 1 h after i.v. administration, patients) was ≤ 48.0. For the same compound, the “background activity (SUV)” value ([4]; 68Ga labeled, 1 h p.i.) was 2, the “average SUVmax, lowest uptake group” value ([4]; 68Ga labeled, 1 h p.i., renal cell, differentiated thyroid, adenoid-cystic, gastric carcinoma, pheochromocytoma) was < 6 and the “average SUVmax, highest uptake group” value ([4]; 68Ga labeled, 1 h p.i., sarcoma, esophageal, breast, cholangiocellular carcinoma, lung cancer) was > 12. The “decrease of tumor uptake (washout)” value ([4]; from 1 h to 3 h p.i., patients) was 50%, the “Plateau value (SUVmean)” value ([5]; hypothetical plateau, two phase exponential decay of heart SUVmean) was 0.21 and the “Blood pool-clearence (T1/2 [min])” value ([5]; rate determining half-life, two phase exponential decay of heart SUVmean 0.375-60 min) was 7.1 min.
